We go through eight compounds from PubChem BioAssay (NCI).

Structures are written as SMILES.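 Following 48 hours of exposure in 96-well plates, responses at five concentrations were used to interpolate endpoints linearly. Abbreviation: GI50, concentration required for 50% inhibition of growth. The concentration for full growth arrest is given as TGI.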 *1 amine or outer side, *2 acyl side, *3 side chain or, on linkers, in order; H or OH if unused. Where a SMILES comes first, the peptide text is derived from it. Bridges are numbered along the chain shown (N, C = ends). [ ]: non-standard residue; d: D form. The star is where a group is joined. Phe(3,5-F2) = N[C@@H](Cc1cc(F)cc(F)c1)C(=O)O; Pro(4R-Me) = C[C@H]1CN[C@H](C(=O)O)C1; aThr = C[C@H](O)[C@H](N)C(=O)O; Pip = O=C(O)[C@@H]1CCCCN1; X10 = Fc1cc(C2CC2)ccc1N*; CO = O=C([*:1])[*:2]

The assay relates to MDA-MB-468 breast. As to the kind of experiment: inhibition of tumour cell growth, NCI panel, 48 h.
Turning to `CN(C)c1ccc(/C=C\C2=[N+](C)c3ccccc3C2(C)C)cc1`, the GI50 is 0.287 µM and the TGI is 5.08 µM.

On to `COc1cccc(-c2cc(-c3cccc(NS(C)(=O)=O)c3)nc(N)c2C#N)c1O`, for which the GI50 is 0.421 µM and the TGI is 4.23 µM.

As for `C[C@@H]1C[C@H]2C(=O)O[C@@H](C)[C@H](NC(=O)[C@H](Cc3cc(F)cc(F)c3)NC(=O)Nc3ccc(C4CC4)cc3F)C(=O)N3CCC[C@H]3C(=O)N3CCCC[C@H]3C(=O)N[C@@H](C)C(=O)N2C1` ({X10-CO}-[Phe(3,5-F2)][aThr]P[Pip]A[Pro(4R-Me)]; ester 2-C), the GI50 is 0.0257 µM and the TGI stood at 0.187 µM.

Take `COc1ccc2c(c1)sc1nc(-c3ccccc3)c(-c3cccc4ccccc34)n12`: the GI50 was 1.47 µM and the TGI worked out at 5.05 µM.

As to `O=C(Nc1ccc(F)cc1)Nc1ccc(Cl)c([N+](=O)[O-])c1`, the GI50 was 2.15 µM and the TGI came to 7.54 µM.

`NS(=O)(=O)OC[C@@H]1C[C@@H](n2ccc3c(NC4CCc5ccccc54)ncnc32)C[C@@H]1O` (stereo partly specified): the GI50 was 1.31 µM and the TGI came to 50.2 µM.

Regarding `Cc1ccc(CN2CCC(C(=O)Nc3ccc(-c4cc5ccccc5[nH]4)cc3)CC2)o1`, the GI50 is 83.4 µM and the TGI was above 100 µM.

Regarding `COc1cnc2c(c1)C(=O)c1c-2n(CCCN2CCOCC2)c(=O)c2cc(F)ccc12`, the GI50 is 0.195 µM and the TGI was 0.656 µM.
